Converted amounts (≈) assume the structure as drawn. Like-named read-outs stand apart in the source and are kept apart here.
Assays:
[1] = test system: C. glabrata; experiment: Checkerboard FIC assay in combination with fluconazole (MIC alone and in combination, FICI); type: cell-based, Candida glabrata; settings: for FICI of combination resulting in fluconazole MIC of: 2 ug/mL / FICI of combination resulting in fluconazole MIC of: 4 ug/mL / FICI of combination resulting in fluconazole MIC of: 8 ug/mL: FICI calculated using a fluconazole MIC of 16 μg/mL; for FICI of combination resulting in fluconazole MIC of: 2 ug/mL (value in parenthesis) / FICI of combination resulting in fluconazole MIC of: 4 ug/mL (value in parenthesis) / FICI of combination resulting in fluconazole MIC of: 8 ug/mL (value in parenthesis): FICI using a fluconazole MIC of 128 μg/mL; for MIC: Nakaseomyces glabratus; for Multiple of compound MIC to synergize fluconazole MIC to 2 ug/mL / Multiple of compound MIC to synergize fluconazole MIC to 4 ug/mL / Multiple of compound MIC to synergize fluconazole MIC to 8 ug/mL: concentration in combination as multiple of the compound's MIC alone; for Multiple of compound MIC to synergize fluconazole MIC to 2 ug/mL: fluconazole MIC 2 ug/mL; for Multiple of compound MIC to synergize fluconazole MIC to 4 ug/mL: fluconazole MIC 4 ug/mL; for Multiple of compound MIC to synergize fluconazole MIC to 8 ug/mL: fluconazole MIC 8 ug/mL; for Concentration of Methylgene compound to synergize fluconazole MIC to 2 ug/mL / Concentration of Methylgene compound to synergize fluconazole MIC to 4 ug/mL / Concentration of Methylgene compound to synergize fluconazole MIC to 8 ug/mL: in combination with fluconazole; for Concentration of Methylgene compound to synergize fluconazole MIC to 2 ug/mL: fluconazole MIC lowered to 2 ug/mL; for Concentration of Methylgene compound to synergize fluconazole MIC to 4 ug/mL: fluconazole MIC lowered to 4 ug/mL; for Concentration of Methylgene compound to synergize fluconazole MIC to 8 ug/mL: fluconazole MIC lowered to 8 ug/mL
In short: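 C. glabrata was tested by CLSI broth microdilution checkerboard, crossing 2-fold dilutions of compound with 2-fold dilutions of fluconazole. The medium was RPMI with 0.165 M MOPS at pH 7.0, inoculated from a 0.5 McFarland suspension diluted 1:100, then incubated about 48 h at 35 °C. Single-agent MICs gave the FIC and FICI values.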

[2] = test system: Candida glabrata; experiment: Minimal Inhibitory Concentration (MIC) assay, broth microdilution per CLSI; type: cell-based; settings: Nakaseomyces glabratus, read-out: Minimum Inhibitory Concentrations against Yeast Isolates, Candida glabrata;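 further: two read times 24 hr and 48 hr of incubation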
In short: (§1)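 CLSI broth microdilution in RPMI/0.165 M MOPS pH 7.0; 2-fold DMSO dilution series; inoculum 0.5 McFarland diluted 1:100; 35° C, ~24-48 hr; MIC = lowest conc. with no visible growth, read from plate bottom.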

[3] = test system: Candida parapsilosis; experiment: as above; type: cell-based; settings: Lodderomyces parapsilosis, read-out: Minimum Inhibitory Concentrations against Yeast Isolates, Candida parapsilosis;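 further: two read times 24 hr and 48 hr of incubation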
In short: as §1

[4] = test system: Candida albicans; experiment: as above; type: cell-based; settings: Candida albicans, read-out: Minimum Inhibitory Concentrations against Yeast Isolates, Candida albicans;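 further: two read times 24 hr and 48 hr of incubation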
In short: as §1

[5] = MIC of the example compound alone against C. glabrata in the checkerboard assay, approximately 48 hr, read-out: Methylgene MIC
[6] = test compound alone, C. glabrata, approx. 48 hr at 35° C., read-out: Compound MIC
[7] = 24 hr reading (first value of cell 24 hr/48 hr)
[8] = 48 hr reading (second value of cell 24 hr/48 hr)

| Compound | FICI of combination resulting in fluconazole MIC of: 2 ug/mL ([1]; C. glabrata) | FICI of combination resulting in fluconazole MIC of: 4 ug/mL ([1]; C. glabrata) | FICI of combination resulting in fluconazole MIC of: 8 ug/mL ([1]; C. glabrata) | FICI of combination resulting in fluconazole MIC of: 2 ug/mL (value in parenthesis) ([1]; C. glabrata) | FICI of combination resulting in fluconazole MIC of: 4 ug/mL (value in parenthesis) ([1]; C. glabrata) | FICI of combination resulting in fluconazole MIC of: 8 ug/mL (value in parenthesis) ([1]; C. glabrata) | MIC [1, 5] [µg/mL] | MIC [1, 6] [µg/mL] | Multiple of compound MIC to synergize fluconazole MIC to 2 ug/mL [1] | Multiple of compound MIC to synergize fluconazole MIC to 4 ug/mL [1] | Multiple of compound MIC to synergize fluconazole MIC to 8 ug/mL [1] | Concentration of Methylgene compound to synergize fluconazole MIC to 2 ug/mL ([1]; C. glabrata) [µg/mL] | Concentration of Methylgene compound to synergize fluconazole MIC to 4 ug/mL ([1]; C. glabrata) [µg/mL] | Concentration of Methylgene compound to synergize fluconazole MIC to 8 ug/mL ([1]; C. glabrata) [µg/mL] | MIC [2, 7] [µg/mL] | MIC [2, 8] [µg/mL] | MIC [3, 7] [µg/mL] | MIC [3, 8] [µg/mL] | MIC [4, 7] [µg/mL] | MIC [4, 8] [µg/mL] |
| --- | --- | --- | --- | --- | --- | --- | --- | --- | --- | --- | --- | --- | --- | --- | --- | --- | --- | --- | --- | --- |
| COCCOCCOCCNC(=O)c1ccc(CCCCc2ccc(CC(=O)NO)cc2)cc1 [Example 11, 4-(4-(4-(2-(hydroxyamino)-2-oxoethyl)phenyl)butyl)-N-(2-(2-(2-methoxyethoxy)ethoxy)ethyl)benzamide] | 0.375 | 0.375 | 0.625 | 0.266 | 0.156 | 0.188 | 8 | 8 | (¼x) | (⅛x) | (⅛x) | 2 | 1 | 1 | > 64 | > 64 | > 64 | > 64 | > 64 | > 64 |
| COCCOCCOCCNS(=O)(=O)c1ccc(CCCCc2ccc(CC(=O)NO)cc2)cc1 [Example 12, N-hydroxy-2-(4-(4-(4-(N-(2-(2-(2-methoxyethoxy)ethoxy)ethyl)sulfamoyl)phenyl)butyl)phenyl)acetamide] | 0.313 | 0.250 | 0.375 | 0.266 | 0.156 | 0.188 | 16 | 16 | (¼x) | (⅛x) | (⅛x) | 4 | 2 | 2 | 4 (≈ 7.86 µM) | 16 (≈ 31.5 µM) | > 64 | > 64 | > 64 | > 64 |
| COc1ccc(CCCCc2ccc(CC(=O)NO)cc2)cc1OC [Example 13, 2-(4-(4-(3,4-dimethoxyphenyl)butyl)phenyl)-N-hydroxyacetamide] | 0.313 | 0.375 | 0.375 | 0.266 | 0.281 | 0.188 | 4 | 4 | (¼x) | (¼x) | (⅛x) | 1 | 1 | 0.5 | 2 (≈ 5.82 µM) | 4 (≈ 11.6 µM) | 16 (≈ 46.6 µM) | > 16 | 8 (≈ 23.3 µM) | 16 (≈ 46.6 µM) |
| O=C(Cc1ccc(CCCCc2ccc(C(=O)O)cc2)cc1)NO [Example 14, 4-(4-(4-(2-(hydroxyamino)-2-oxoethyl)phenyl)butyl)benzoic acid] | > 0.563 | > 0.625 | > 0.750 | > 0.516 | > 0.531 | > 0.563 | > 16 | > 16 | – | – | – | 16 | 16 | 16 | 32 (≈ 97.7 µM) | 64 (≈ 195 µM) | 32 (≈ 97.7 µM) | > 64 | 16 (≈ 48.9 µM) | > 64 |
| O=C(Cc1ccc(CCCCc2ccc(O)cc2)cc1)NO [Example 15, N-hydroxy-2-(4-(4-(4-hydroxyphenyl)butyl)phenyl)acetamide] | 0.375 | 0.500 | 0.625 | 0.266 | 0.281 | 0.188 | 8 | 8 | (¼x) | (¼x) | (⅛x) | 2 | 2 | 1 | > 8 | > 8 | > 16 | > 16 | > 16 | > 16 |
| O=C(Cc1ccc(CCCCc2ccc(OCCCN3CCOCC3)cc2)cc1)NO [Example 16, N-hydroxy-2-(4-(4-(4-(3-morpholinopropoxy)phenyl)butyl)phenyl)acetamide] | 0.375 | 0.500 | 0.625 | 0.266 | 0.281 | 0.188 | 2 | 2 | (¼x) | (¼x) | (⅛x) | 0.5 | 0.5 | 0.25 | > 32 | > 32 | > 16 | > 16 | > 16 | > 16 |
| O=C(Cc1ccc(CCCCc2ccc(O)c(O)c2)cc1)NO [Example 19, 2-(4-(4-(3,4-dihydroxyphenyl)butyl)phenyl)-N-hydroxyacetamide] | 0.313 | 0.375 | 0.500 | 0.266 | 0.281 | 0.313 | 2 | 2 | (¼x) | (¼x) | (¼x) | 0.5 | 0.5 | 0.5 | 1 (≈ 3.17 µM) | 2 (≈ 6.34 µM) | 32 (≈ 101 µM) | 32 (≈ 101 µM) | 16 (≈ 50.7 µM) | 32 (≈ 101 µM) |

Source: patent US20140081017A1, “Histone Deacetylase Inhibitors for Enhancing Activity of Antifungal Agents” (METHYLGENE INC., priority 2012, published 2014)
